Experiment [1] concerns obesity model rats fed with the high-fat feed. The experiment in a line: Weight reducing effect in rats fed high-fat feed, 7 weeks of administration via lavage. The class given is in vivo, male Spague-Dawlay (SD) Rats. The following applies: high-fat feed SD rats, 80 mg/kg via lavage once daily for 7 weeks, x ± s, n = 10. The text has this:
The feed is commercially available. The high-fat feed comprises 75% base feed, 2% cholesterol, 0.5% sodium cholate, 15% lard, and 7.5% egg yolk. 150 male Spague-Dawlay (SD) Rats of clean grade, each aged 4 weeks and weighed 150-180 g, are provided by Shanghai Lingchang Biotechnology Co., Ltd. The rats are fed in separate plastic cages, given free access to water and feed for 7 days to adapt to the environment, and then quarantined. 140 rats of similar weight are selected from the 150 rats, randomly divided into 14 groups, with 10 rats in each group, including experimental groups 1-8, comparative experiment groups 1-4, a model control group and a blank control group. Rats in the blank control group are fed with the base feed, and rats in other groups are fed with the high-fat feed. Rats in the experimental groups 1-8 are respectively administered via lavage with 80 mg/kg of the pharmaceutical compositions prepared in Examples 1-8; rats in the comparative experiment groups 1-4 are respectively administered via lavage with 80 mg/kg of phloridzin, 80 mg/kg of the extract from Curcuma longa L., 80 mg/kg of epigallocatechin gallate and 80 mg/kg of the extract from […] folium; and rats in the model control group and the blank control group are administered via lavage with equivalent amounts of saline. Rats in each group receive administration once daily for 7 continuous weeks. (1) After 7 weeks of administration, the weight and weight gain of rats in each group are observed and recorded; (2) Rats are anesthetized with ether, and fat pads surrounding the genitalia and kidney and the fat of the omentum are separated and weighed. A fat-to-weight ratio is calculated according to the following equation: fat-to-weight ratio (%)=(weight of fat surrounding the genitalia+weight of fat surrounding kidney+weight of fat of the omentum)/body weight×100%; Data processing is performed using SPSS 20.0 software. Differences between the groups are analyzed using a single-factor variance analysis.

Experiment [2] deals with hyperlipemia model rats fed with the high-fat feed. The experiment in a line: Blood lipid lowering effect in rats fed high-fat feed, serum biochemical parameters by enzymatic method. The following applies: high-fat feed SD rats, 80 mg/kg via lavage once daily for 7 weeks, x ± s, n = 10. The class given is in vivo, male Spague-Dawlay (SD) Rats. The text has this:
The feed is commercially available. The high-fat feed comprises 75% base feed, 2% cholesterol, 0.5% sodium cholate, 15% lard, and 7.5% egg yolk. 150 male Spague-Dawlay (SD) Rats of clean grade, each aged 4 weeks and weighed 150-180 g, are provided by Shanghai Lingchang Biotechnology Co., Ltd. The rats are fed in separate plastic cages, given free access to water and feed for 7 days to adapt to the environment, and then quarantined.
140 rats of similar weight are selected from the 150 rats, randomly divided into 14 groups, with 10 rats in each group, including experimental groups 1-8, comparative experiment groups 1-4, a model control group and a blank control group. Rats in the blank control group are fed with the base feed, and rats in other groups are fed with the high-fat feed.
Rats in the experimental groups 1-8 are respectively administered via lavage with 80 mg/kg of the pharmaceutical compositions prepared in Examples 1-8; rats in the comparative experiment groups 1-4 are respectively administered via lavage with 80 mg/kg of phloridzin, 80 mg/kg of the extract from Curcuma longa L., 80 mg/kg of epigallocatechin gallate and 80 mg/kg of the extract from sennae folium; and rats in the model control group and the blank control group are administered via lavage with equivalent amounts of saline.
Rats in each group receive administration once daily for 7 continuous weeks.
(3) After 7 weeks of administration, blood are collected from orbital posterior venous plexus of the rats and analyzed with an enzymatic method on a full-automatic biochemical analyzer to quantitatively determine levels of triglycerides (TG), total cholesterol (TC), high density lipoprotein cholesterol (HDL-C), and low density lipoprotein cholesterol (LDL-C) in serum.
Data processing is performed using SPSS 20.0 software. Differences between the groups are analyzed using a single-factor variance analysis.

As to `O=C(CCc1ccc(O)cc1)c1c(O)cc(O)cc1O[C@@H]1O[C@H](CO)[C@@H](O)[C@H](O)[C@H]1O` [Comparative experiment Group 1, phloridzin], in experiment [1], the Body weight gain is reported as 161.35 ± 20.01 g and the Fat-to-weight ratio is reported as 5.87 ± 0.72 %. For the same compound, in experiment [2], the HDL-C was found to be 0.72 ± 0.10 mmol/L, the LDL-C was 0.49 ± 0.10 mmol/L, the TC worked out at 2.21 ± 0.51 mmol/L and the TG stood at 1.56 ± 0.39 mmol/L.
Regarding `O=C(O[C@@H]1Cc2c(O)cc(O)cc2O[C@@H]1c1cc(O)c(O)c(O)c1)c1cc(O)c(O)c(O)c1` [Comparative experiment Group 3, epigallocatechin gallate], in experiment [1], the Body weight gain was determined as 189.76 ± 22.25 g and the Fat-to-weight ratio is recorded as 7.48 ± 0.53%. For the same compound, in experiment [2], the HDL-C came to 0.59 ± 0.12 mmol/L, the LDL-C worked out at 0.55 ± 0.12 mmol/L, the TC is given as 2.55 ± 0.43 mmol/L and the TG is listed as 1.77 ± 0.41 mmol/L.

The values are drawn from patent US20200297746A1, “COMPOSITION FOR REDUCING WEIGHT AND LOWERING LIPID, PREPARATION METHOD THEREFOR AND USE THEREOF” (CATCH BIO-SCIENCE & TECHNOLOGY CO., LTD., priority 2017, published 2020).
